Tested on: methicillin-resistant Staphylococcus aureus
Experiment: In-vitro time-kill test on S. aureus (MRSA)
Details: for Post-exposure population: inoculum 1.460×10^7 CFU/ML
Description: This example compares the test composition to a solution of 4% chlorhexidine gluconate. The microorganism used in the test was methicillin-resistant Staphylococcus aureus.
An in-vitro time-kill test was performed on S. aureus using both the test composition and the solution of 4% chlorhexidine gluconate. A S. aureus suspension with an inoculum level of 1.460×10^7 colony-forming units (CFU)/ML was used for all tests. A 0.1 mL aliquot of the S. aureus suspension was added to 9.9 mL of the test composition or the 4% chlorhexidine gluconate solution and exposed for periods of one minute, five minutes, and 10 minutes. At the end of each exposure period, a neutralizer was added to stop the bactericidal activity.

SMILES: N=C(NCCCCCCNC(=N)NC(=N)Nc1ccc(Cl)cc1)NC(=N)Nc1ccc(Cl)cc1.O=C(O)[C@H](O)[C@@H](O)[C@H](O)[C@H](O)CO.O=C(O)[C@H](O)[C@@H](O)[C@H](O)[C@H](O)CO [4% chlorhexidine gluconate, chlorhexidine gluconate]
- Log10 reduction (exposure 1 minute): 4.0798 Log10
- Percent reduction (exposure 1 minute): 99.9917%
- Post-exposure population (exposure 1 minute): 1.2150 × 10^3 CFU/ML
- Log10 reduction (exposure 5 minutes): 6.1644 Log10
- Percent reduction (exposure 5 minutes): 99.9999%
- Post-exposure population (exposure 5 minutes): <1.00 × 10^1 CFU/ML
- Log10 reduction (exposure 10 minutes): 6.1644 Log10
- Percent reduction (exposure 10 minutes): 99.9999%
- Post-exposure population (exposure 10 minutes): <1.00 × 10^1 CFU/ML

From US20140275275A1, “Chlorhexadine Antiseptic” (CARNELL & HERZOG, LLC, priority 2013, published 2014)
